Among the data in paper PMC6437697 (Journal of Medicinal Chemistry, 2019) are remaining binding values, retold here.

Holding throughout (assay): KINOMEscan
What all share (type): binding
Holding throughout (conditions): read-out: % control activity remaining

One experiment has as its target T1, RAF1 (Homo sapiens, UniProt P04049).
T1 construct: purchased Eurofins DiscoverX KINOMEscan

The target in a further experiment is T2, ARK5 (Homo sapiens, UniProt O60285).
T2 construct: purchased Eurofins DiscoverX KINOMEscan
T2 sequence (O60285 1-661): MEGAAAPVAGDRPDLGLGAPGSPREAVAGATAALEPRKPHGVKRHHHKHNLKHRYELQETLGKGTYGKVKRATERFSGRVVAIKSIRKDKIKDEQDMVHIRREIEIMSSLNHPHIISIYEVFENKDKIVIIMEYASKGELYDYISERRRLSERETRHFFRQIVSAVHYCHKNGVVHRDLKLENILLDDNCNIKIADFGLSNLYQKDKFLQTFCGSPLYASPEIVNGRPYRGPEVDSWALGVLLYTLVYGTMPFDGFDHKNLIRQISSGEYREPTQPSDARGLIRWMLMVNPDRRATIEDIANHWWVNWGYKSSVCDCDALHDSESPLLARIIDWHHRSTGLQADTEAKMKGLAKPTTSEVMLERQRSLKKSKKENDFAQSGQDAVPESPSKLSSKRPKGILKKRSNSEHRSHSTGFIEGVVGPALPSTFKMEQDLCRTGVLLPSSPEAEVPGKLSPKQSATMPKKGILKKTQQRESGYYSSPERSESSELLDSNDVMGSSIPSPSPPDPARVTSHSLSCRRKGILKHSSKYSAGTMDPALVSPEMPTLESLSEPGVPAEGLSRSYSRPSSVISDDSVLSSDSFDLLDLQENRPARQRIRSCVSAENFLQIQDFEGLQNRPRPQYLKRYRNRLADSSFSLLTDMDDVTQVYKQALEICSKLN

In a further experiment the target is T3, MEK4 (Homo sapiens, UniProt P45985).
T3 construct: purchased Eurofins DiscoverX KINOMEscan
T3 sequence (P45985 1-399): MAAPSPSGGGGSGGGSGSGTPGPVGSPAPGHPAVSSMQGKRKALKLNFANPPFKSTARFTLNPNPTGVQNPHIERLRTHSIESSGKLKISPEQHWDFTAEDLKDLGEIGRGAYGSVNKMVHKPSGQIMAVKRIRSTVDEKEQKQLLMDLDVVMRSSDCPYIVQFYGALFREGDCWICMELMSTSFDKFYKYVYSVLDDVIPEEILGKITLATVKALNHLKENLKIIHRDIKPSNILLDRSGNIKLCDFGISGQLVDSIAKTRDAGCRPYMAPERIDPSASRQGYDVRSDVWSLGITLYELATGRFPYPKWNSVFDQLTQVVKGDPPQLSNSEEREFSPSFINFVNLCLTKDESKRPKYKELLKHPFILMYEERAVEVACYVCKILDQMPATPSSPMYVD

For another experiment, the target named is T4, ERK4 (Homo sapiens, UniProt P31152).
T4 construct: purchased Eurofins DiscoverX KINOMEscan

Experiment [1] deals with T5, EGFR(L747-S752del, P753S) (Homo sapiens, UniProt P00533, DEL747-752/P753S).
T5 construct: purchased Eurofins DiscoverX KINOMEscan

The target in the next experiment is T6, PIK3CA(C420R) (Homo sapiens, UniProt P42336, C420R).
T6 construct: purchased Eurofins DiscoverX KINOMEscan

Another experiment concerns the target T7, PLK3 (Homo sapiens, UniProt Q9H4B4).
T7 construct: purchased Eurofins DiscoverX KINOMEscan

The target of the next experiment is T8, SRPK2 (Homo sapiens, UniProt P78362).
T8 construct: purchased Eurofins DiscoverX KINOMEscan

In another experiment the target is T9, TIE2 (Homo sapiens, UniProt Q02763).
T9 construct: purchased Eurofins DiscoverX KINOMEscan

The target of the next experiment is T10, CAMK4 (Homo sapiens, UniProt Q16566).
T10 construct: purchased Eurofins DiscoverX KINOMEscan

For experiment [2], the target named is T11, ABL1(Q252H)-nonphosphorylated (Homo sapiens, UniProt P00519, Q252H).
T11 construct: purchased Eurofins DiscoverX KINOMEscan

The next experiment concerns the target T12, ALK(C1156Y) (Homo sapiens, UniProt Q9UM73, C1156Y).
T12 construct: purchased Eurofins DiscoverX KINOMEscan

The target in the next experiment is T13, ALK (Homo sapiens, UniProt Q9UM73).
T13 construct: purchased Eurofins DiscoverX KINOMEscan

In a further experiment the target is T14, KIT(L576P) (Homo sapiens, UniProt P10721, L576P).
T14 construct: purchased Eurofins DiscoverX KINOMEscan

The target of the next experiment is T15, SNRK (Homo sapiens, UniProt Q9NRH2).
T15 construct: purchased Eurofins DiscoverX KINOMEscan
T15 sequence (Q9NRH2 1-765): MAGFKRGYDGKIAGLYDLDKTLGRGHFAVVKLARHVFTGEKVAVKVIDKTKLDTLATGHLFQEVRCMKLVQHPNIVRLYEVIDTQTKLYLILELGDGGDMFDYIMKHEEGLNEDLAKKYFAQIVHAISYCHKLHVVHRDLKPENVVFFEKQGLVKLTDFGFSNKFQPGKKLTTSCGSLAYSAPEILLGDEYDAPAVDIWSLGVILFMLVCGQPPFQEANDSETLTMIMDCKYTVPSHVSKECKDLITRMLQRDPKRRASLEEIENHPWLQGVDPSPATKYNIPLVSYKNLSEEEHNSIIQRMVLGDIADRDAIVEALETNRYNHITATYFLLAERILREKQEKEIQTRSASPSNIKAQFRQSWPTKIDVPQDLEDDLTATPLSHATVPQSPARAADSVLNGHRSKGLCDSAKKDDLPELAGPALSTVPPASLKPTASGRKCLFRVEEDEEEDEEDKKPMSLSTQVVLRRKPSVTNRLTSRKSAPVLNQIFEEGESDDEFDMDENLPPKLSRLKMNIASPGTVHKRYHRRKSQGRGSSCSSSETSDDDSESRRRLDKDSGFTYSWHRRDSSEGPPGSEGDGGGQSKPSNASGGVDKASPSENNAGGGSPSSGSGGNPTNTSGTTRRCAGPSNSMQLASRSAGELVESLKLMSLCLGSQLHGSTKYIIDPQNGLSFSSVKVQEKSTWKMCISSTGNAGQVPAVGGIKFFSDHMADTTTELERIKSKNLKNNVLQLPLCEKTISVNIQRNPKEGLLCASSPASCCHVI

Molecules are shown by their SMILES.

T7 sequence (Q9H4B4 whole entry): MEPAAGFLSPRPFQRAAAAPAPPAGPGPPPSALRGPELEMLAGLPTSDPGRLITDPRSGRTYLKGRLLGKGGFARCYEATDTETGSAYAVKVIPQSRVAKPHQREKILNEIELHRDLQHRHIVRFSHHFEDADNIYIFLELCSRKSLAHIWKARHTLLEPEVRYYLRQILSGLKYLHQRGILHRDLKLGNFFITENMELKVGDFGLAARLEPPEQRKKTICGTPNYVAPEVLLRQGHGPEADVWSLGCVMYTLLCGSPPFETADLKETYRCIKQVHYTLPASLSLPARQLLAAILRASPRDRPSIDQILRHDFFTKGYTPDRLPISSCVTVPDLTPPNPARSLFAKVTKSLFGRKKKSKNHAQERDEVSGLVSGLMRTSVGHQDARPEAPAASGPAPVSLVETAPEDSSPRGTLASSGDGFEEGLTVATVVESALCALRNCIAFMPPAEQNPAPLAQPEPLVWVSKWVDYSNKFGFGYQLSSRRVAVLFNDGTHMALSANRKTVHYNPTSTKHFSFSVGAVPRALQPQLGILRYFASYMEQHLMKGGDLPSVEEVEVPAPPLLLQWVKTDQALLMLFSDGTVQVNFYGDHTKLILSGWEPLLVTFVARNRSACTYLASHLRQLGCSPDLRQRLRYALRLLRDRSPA
T9 sequence (Q02763 23-1124): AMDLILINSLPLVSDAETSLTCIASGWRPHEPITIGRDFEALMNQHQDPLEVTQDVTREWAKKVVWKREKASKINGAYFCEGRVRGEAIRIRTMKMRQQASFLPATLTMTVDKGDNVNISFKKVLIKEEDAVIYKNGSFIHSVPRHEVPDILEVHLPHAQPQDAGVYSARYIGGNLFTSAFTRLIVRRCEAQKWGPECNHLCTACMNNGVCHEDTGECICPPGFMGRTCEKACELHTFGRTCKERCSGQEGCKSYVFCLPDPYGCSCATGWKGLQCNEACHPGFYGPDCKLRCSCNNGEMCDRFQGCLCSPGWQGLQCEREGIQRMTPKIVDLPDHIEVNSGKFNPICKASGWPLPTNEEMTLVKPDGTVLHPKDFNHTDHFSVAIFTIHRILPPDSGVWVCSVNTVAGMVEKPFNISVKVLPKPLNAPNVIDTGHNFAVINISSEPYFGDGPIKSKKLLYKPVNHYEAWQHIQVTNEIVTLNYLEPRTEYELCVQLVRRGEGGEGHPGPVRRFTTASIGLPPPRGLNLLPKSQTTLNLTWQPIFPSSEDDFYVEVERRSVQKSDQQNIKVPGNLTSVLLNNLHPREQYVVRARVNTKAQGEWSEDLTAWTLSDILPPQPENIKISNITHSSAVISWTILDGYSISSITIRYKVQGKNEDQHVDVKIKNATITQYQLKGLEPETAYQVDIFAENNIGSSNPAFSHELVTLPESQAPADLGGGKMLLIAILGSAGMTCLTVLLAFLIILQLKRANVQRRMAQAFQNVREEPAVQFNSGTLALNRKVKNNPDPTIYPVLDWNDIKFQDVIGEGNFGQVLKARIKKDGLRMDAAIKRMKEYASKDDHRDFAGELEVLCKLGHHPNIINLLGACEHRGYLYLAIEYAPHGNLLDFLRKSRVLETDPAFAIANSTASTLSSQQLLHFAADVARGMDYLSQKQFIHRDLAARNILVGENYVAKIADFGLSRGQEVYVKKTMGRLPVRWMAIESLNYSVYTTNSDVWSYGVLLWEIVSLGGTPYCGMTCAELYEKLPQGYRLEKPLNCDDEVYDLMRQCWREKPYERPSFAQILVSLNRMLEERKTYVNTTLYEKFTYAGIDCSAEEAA
T5 sequence (P00533 with tags, fused parts or gaps DEL747-752/P753S limits assumed): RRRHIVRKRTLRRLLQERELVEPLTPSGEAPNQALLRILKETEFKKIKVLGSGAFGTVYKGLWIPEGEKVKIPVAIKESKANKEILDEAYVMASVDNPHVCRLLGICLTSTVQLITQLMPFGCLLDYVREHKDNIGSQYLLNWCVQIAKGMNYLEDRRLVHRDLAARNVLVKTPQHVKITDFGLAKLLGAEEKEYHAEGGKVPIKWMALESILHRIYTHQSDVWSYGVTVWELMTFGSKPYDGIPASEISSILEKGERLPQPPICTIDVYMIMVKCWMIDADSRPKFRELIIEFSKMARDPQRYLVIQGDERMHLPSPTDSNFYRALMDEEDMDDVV
T12 sequence (Q9UM73 19-1620 C1156Y): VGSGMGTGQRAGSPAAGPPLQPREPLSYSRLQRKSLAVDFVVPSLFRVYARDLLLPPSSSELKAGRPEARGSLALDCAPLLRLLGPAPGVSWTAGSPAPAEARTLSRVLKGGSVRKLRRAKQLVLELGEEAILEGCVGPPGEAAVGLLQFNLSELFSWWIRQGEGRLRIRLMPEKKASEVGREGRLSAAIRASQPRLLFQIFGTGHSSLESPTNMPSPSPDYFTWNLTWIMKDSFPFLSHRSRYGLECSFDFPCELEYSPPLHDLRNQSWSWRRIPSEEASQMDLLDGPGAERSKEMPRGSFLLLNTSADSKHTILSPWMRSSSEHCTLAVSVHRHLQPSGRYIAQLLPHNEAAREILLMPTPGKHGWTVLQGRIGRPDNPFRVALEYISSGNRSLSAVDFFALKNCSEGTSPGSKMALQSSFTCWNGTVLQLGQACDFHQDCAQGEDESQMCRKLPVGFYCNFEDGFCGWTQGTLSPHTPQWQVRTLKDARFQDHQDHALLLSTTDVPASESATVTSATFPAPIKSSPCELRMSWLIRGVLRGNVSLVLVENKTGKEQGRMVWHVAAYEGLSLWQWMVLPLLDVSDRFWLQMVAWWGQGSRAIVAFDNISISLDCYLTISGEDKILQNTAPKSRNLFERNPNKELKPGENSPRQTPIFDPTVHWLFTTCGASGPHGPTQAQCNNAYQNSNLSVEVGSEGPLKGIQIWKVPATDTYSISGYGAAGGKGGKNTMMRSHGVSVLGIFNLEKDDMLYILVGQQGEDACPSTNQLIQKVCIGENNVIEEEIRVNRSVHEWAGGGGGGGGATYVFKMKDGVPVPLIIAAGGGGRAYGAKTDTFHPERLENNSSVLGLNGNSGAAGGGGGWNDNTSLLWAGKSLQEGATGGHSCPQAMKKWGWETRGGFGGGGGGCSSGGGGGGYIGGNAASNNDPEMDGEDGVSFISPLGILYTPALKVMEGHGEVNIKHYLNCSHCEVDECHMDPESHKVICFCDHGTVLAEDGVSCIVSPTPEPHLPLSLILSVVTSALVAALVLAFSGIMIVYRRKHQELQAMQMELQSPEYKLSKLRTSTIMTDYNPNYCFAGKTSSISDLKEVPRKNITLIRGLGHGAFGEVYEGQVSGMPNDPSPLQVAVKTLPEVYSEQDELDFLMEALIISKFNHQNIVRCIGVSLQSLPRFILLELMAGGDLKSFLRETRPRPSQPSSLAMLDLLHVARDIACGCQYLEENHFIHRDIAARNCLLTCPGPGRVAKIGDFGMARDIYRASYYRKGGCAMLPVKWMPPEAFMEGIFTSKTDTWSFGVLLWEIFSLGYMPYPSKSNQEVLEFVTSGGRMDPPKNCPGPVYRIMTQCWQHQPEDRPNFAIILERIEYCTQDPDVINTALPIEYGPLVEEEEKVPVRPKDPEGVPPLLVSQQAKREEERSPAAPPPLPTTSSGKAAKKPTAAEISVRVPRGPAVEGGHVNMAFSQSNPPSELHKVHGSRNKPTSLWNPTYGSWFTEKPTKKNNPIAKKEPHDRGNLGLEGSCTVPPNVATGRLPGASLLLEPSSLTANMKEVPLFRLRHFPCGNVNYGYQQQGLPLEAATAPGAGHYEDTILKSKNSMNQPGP
T13 sequence (Q9UM73 19-1620): as the sequence (Q9UM73 19-1620 C1156Y) above, with Y1138C counted along it
T4 sequence (P31152 whole entry): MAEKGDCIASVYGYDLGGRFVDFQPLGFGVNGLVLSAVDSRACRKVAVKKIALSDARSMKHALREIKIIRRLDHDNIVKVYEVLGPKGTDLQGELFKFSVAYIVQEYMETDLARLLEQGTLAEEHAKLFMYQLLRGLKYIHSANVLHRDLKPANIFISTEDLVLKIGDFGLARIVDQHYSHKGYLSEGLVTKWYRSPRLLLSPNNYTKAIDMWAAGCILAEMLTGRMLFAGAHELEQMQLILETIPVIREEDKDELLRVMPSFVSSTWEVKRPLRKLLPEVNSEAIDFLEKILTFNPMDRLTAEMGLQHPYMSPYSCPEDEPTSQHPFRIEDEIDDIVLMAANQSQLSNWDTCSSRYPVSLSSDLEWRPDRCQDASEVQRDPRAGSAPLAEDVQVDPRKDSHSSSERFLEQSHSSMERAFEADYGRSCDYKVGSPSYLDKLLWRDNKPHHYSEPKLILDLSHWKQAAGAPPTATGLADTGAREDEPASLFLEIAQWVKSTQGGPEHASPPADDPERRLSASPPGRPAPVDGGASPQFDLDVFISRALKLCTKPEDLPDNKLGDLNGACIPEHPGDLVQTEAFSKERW
T8 sequence (P78362 whole entry): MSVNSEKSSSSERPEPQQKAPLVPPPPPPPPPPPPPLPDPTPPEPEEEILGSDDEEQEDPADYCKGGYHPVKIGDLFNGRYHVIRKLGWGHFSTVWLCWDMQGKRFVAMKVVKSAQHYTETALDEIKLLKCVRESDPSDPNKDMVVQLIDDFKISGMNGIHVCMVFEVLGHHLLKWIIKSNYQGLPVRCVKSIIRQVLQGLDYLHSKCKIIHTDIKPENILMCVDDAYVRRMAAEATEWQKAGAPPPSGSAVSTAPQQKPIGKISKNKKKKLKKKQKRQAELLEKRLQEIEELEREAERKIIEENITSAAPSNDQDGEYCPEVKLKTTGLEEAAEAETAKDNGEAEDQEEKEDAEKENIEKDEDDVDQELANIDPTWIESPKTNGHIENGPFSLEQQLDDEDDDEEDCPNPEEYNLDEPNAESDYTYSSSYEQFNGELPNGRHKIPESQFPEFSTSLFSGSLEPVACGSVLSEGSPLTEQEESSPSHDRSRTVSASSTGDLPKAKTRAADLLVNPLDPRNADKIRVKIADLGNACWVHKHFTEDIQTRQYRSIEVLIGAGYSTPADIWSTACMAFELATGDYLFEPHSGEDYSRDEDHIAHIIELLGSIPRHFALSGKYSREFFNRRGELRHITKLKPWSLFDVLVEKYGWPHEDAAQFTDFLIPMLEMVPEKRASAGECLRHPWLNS

Turning to `Clc1cc(NCC2CC2)c2ncc(-c3ccc4[nH]ncc4c3)n2n1` [compound 2, 6-Chloro-N-(cyclopropylmethyl)-3-(1H-indazol-5-yl)imidazo[1,2-b]pyridazin-8-amine], the remaining binding at 1 µM came to 99% on RAF1; 99% on ARK5; 75% at MEK4; 100% on ERK4; 89% in experiment [1]; 88% at PIK3CA(C420R). The remaining binding at 1 µM was determined as 90% on PLK3; 73% on SRPK2; 78% on TIE2; 100% at CAMK4; 93% in experiment [2]; 88% at ALK(C1156Y). Further, the remaining binding at 1 µM at ALK is 92%; at KIT(L576P), 1.2%; on SNRK, 99%.
In the case of `O=C(CN1CCOCC1)N[C@H]1CC[C@H](Nc2cc(Cl)nn3c(-c4ccc5[nH]ncc5c4)cnc23)CC1` [compound 26], the remaining binding at 1 µM was determined as 100% on RAF1; 100% on ARK5; 100% on MEK4; 99% at ERK4; 81% in experiment [1]; 89% on PIK3CA(C420R). In addition, the remaining binding at 1 µM was 89% on PLK3; 79% on SRPK2; 89% on TIE2; 100% on CAMK4; 48% in [2]; 64% on ALK(C1156Y). Further, the values for the remaining binding at 1 µM at ALK, on KIT(L576P) and at SNRK were 94%, 0% and 100%, respectively.
`CN1CCC(CNc2cc(Cl)nn3c(-c4cc5nc(Nc6ccccc6)[nH]c5cc4F)cnc23)CC1` [compound 31, 6-Chloro-3-(6-fluoro-2-(phenylamino)-1H-benzo[d]imidazol-5-yl)-N-((1-methylpiperidin-4-yl)methyl)imidazo[1,2-b]pyridazin-8-amine]: the remaining binding at 1 µM at RAF1 turned out to be 100%; on ARK5, 100%; on MEK4, 100%; on ERK4 it was 93%; in [1], 100%; at PIK3CA(C420R) it was 85%. For the same molecule, the remaining binding at 1 µM was 90% on PLK3; 93% on SRPK2; 91% at TIE2; 100% on CAMK4; 64% in experiment [2]; 91% on ALK(C1156Y). Moreover, the remaining binding at 1 µM on ALK was found to be 70%; on KIT(L576P), 61%; on SNRK, 79%.
